Experimental data from US20250295679A1, “Compositions and Dosage Forms for Treatment of HPV Infection and HPV-Induced Neoplasia” (priority 2022, published 2025).

Experiments:
[1] = Solubility in buffers, water and simulated vaginal fluid at 37° C.; settings: for pH of solution at 2 hours: 37° C.
[2] = Hygroscopicity by DVS at 25° C.; format: physicochemical; settings: for XRPD after DVS test: 25° C.
Description: Hygroscopicity was investigated by DVS at 25° C., using the following method: • Method: 40-0-95-0-40% RH, dm/dt=0.002

[3] = Polymorph screening by equilibration in solvents; format: physicochemical
[4] = Hygroscopicity by DVS at 25° C.; format: physicochemical; settings: cycle of 40-0-95-0-45% relative humidity
[5] = Bulk (accelerated) stability, one week, HPLC and XRPD; settings: for Bulk (HPLC) Purity: 1 week
Description: Bulk stability: Accelerated stability experiments were conducted at 25° C./92% RH and 40° C./75% RH in an open container, 60° C. in a tight container for one week.
Samples were characterized by XRPD and HPLC and inspected for color change.
Accelerated stability experiments were conducted at 25° C./92% RH in an open container, at 40° C./75% RH in an open container, and at 60° C. in a tight container for one week.

[6] = 37 °C, pH 3, aqueous buffer, thermodynamic from solid
[7] = 37 °C, pH 4.2, fassgf or other biorelevant, thermodynamic from solid
[8] = 37 °C, pH 4.5, aqueous buffer, thermodynamic from solid
[9] = 37 °C, pH 6.8, aqueous buffer, thermodynamic from solid
[10] = 37 °C, water, thermodynamic from solid

CCOC(=O)[C@H](C)N[P@](=O)(COCCn1cnc2c(OC)nc(N)nc21)OCc1ccccc1.O=C(O)/C=C/C(=O)O (single isomer, unassigned) [Compound III]
solubility at 0.5 h [1, 6]: > 2000 µg/mL | solubility at 2 h [1, 6]: > 2000 µg/mL | solubility at 0.5 h [1, 7]: > 2000 µg/mL | solubility at 2 h [1, 7]: > 2000 µg/mL | solubility at 0.5 h [1, 8]: > 2000 µg/mL | solubility at 2 h [1, 8]: > 2000 µg/mL | solubility at 0.5 h [1, 9]: > 2000 µg/mL | solubility at 2 h [1, 9]: > 2000 µg/mL | solubility ([1]; 37 °C, thermodynamic from solid): > 2000 µg/mL | solubility at 0.5 h [1, 10]: > 2000 µg/mL | solubility at 2 h [1, 10]: > 2000 µg/mL | pH of solution at 2 hours ([1]; ES1: pH 3.0, 100 mM citrate buffer): 2.83 | pH of solution at 2 hours ([1]; ES2: pH 4.5, 50 mM acetate buffer): 4.12 | pH of solution at 2 hours ([1]; ES3: pH 6.8, 50 mM phosphate buffer): 6.44 | pH of solution at 2 hours ([1]; ES4: Water): 2.78 | pH of solution at 2 hours ([1]; ES5: Simulated vaginal fluid (pH adjusted by 0.1N NaOH)): 5.37 | Desorp. (%) Cycle 1 ([2]; DVS 25° C., 0% RH): 0.00% | Desorp. (%) Cycle 2 ([2]; DVS 25° C., 0% RH): 0.00% | Sorp. (%) Cycle 1 ([2]; DVS 25° C., 0% RH): 0.00% | Sorp. (%) Cycle 2 ([2]; DVS 25° C., 0% RH): 0.00% | Desorp. (%) Cycle 1 ([2]; DVS 25° C., 10% RH): 0.07% | Desorp. (%) Cycle 2 ([2]; DVS 25° C., 10% RH): 0.07% | Sorp. (%) Cycle 1 ([2]; DVS 25° C., 10% RH): 0.07% | Sorp. (%) Cycle 2 ([2]; DVS 25° C., 10% RH): 0.07% | Desorp. (%) Cycle 1 ([2]; DVS 25° C., 20% RH): 0.15% | Desorp. (%) Cycle 2 ([2]; DVS 25° C., 20% RH): 0.15% | Sorp. (%) Cycle 1 ([2]; DVS 25° C., 20% RH): 0.14% | Sorp. (%) Cycle 2 ([2]; DVS 25° C., 20% RH): 0.14% | Desorp. (%) Cycle 1 ([2]; DVS 25° C., 30% RH): 0.23% | Desorp. (%) Cycle 2 ([2]; DVS 25° C., 30% RH): 0.23% | Sorp. (%) Cycle 1 ([2]; DVS 25° C., 30% RH): 0.22% | Sorp. (%) Cycle 2 ([2]; DVS 25° C., 30% RH): 0.22% | Desorp. (%) Cycle 1 ([2]; DVS 25° C., 40% RH): 0.30% | Desorp. (%) Cycle 2 ([2]; DVS 25° C., 40% RH): 0.32% | Sorp. (%) Cycle 1 ([2]; DVS 25° C., 40% RH): 0.29% | Sorp. (%) Cycle 2 ([2]; DVS 25° C., 40% RH): 0.30% | Desorp. (%) Cycle 2 ([2]; DVS 25° C., 50% RH): 0.41% | Sorp. (%) Cycle 1 ([2]; DVS 25° C., 50% RH): 0.39% | Desorp. (%) Cycle 2 ([2]; DVS 25° C., 60% RH): 0.52% | Sorp. (%) Cycle 1 ([2]; DVS 25° C., 60% RH): 0.47% | Desorp. (%) Cycle 2 ([2]; DVS 25° C., 70% RH): 0.67% | Sorp. (%) Cycle 1 ([2]; DVS 25° C., 70% RH): 0.59% | Desorp. (%) Cycle 2 ([2]; DVS 25° C., 80% RH): 0.81% | Sorp. (%) Cycle 1 ([2]; DVS 25° C., 80% RH): 0.71% | Desorp. (%) Cycle 2 ([2]; DVS 25° C., 90% RH): 0.97% | Sorp. (%) Cycle 1 ([2]; DVS 25° C., 90% RH): 0.92% | Desorp. (%) Cycle 2 ([2]; DVS 25° C., 95% RH): 1.01% | Sorp. (%) Cycle 1 ([2]; DVS 25° C., 95% RH): 1.01% | Hygroscopicity ([2]; DVS at 25° C., in words): slightly hygroscopic | XRPD after DVS test ([2]; after DVS 40-0-95-0-40% RH): No form change | XRPD after DVS test ([2]; after humidity cycle 40-0-95-0-40% RH, listed as Compound III Pattern 2, monofumarate): No form change | XRPD after DVS test ([2]; after humidity cycle 40-0-95-0-40% RH, monofumarate): lose one of the peaks | Water uptake ([2]; up to / in 95% RH, DVS 25° C.): about 1.0% | Crystal modification after 1 week equilibration at 25° C. ([3]; PS1: IPA): Compound V Pattern 2 | Crystal modification after 1 week equilibration at 25° C. ([3]; PS2: Heptanes): Compound III Pattern 2 | Crystal modification after 1 week equilibration at 25° C. ([3]; PS3: Water): Compound III Pattern 3 | Crystal modification after 1 week equilibration at 25° C. ([3]; PS4: ACN): Compound III Pattern 4 | Crystal modification after 1 week equilibration at 25° C. ([3]; PS5: MEK): Compound III Pattern 5 | Crystal modification after 1 week equilibration at 25° C. ([3]; PS7: IPA/heptanes (3/10, v/v)): Compound III Pattern 2 | Crystal modification after 1 week equilibration at 25° C. ([3]; PS8: water/ACN (2.9/97.1, v/v)): Compound III Pattern 4 | Crystal modification after 1 week equilibration at 25° C. ([3]; PS9: IPA/MTBE (1/3, v/v)): Compound III Pattern 6 | Crystal modification after 1 week equilibration at 25° C. ([3]; PS10: EA/toluene (1/3, v/v)): Compound III Pattern 2 | Dissociation of the salt during equilibration experiments ([3]; equilibration in solvents, 1 week, 25° C.): dissociation was observed | Fold increase of retained water content over Compound II [4]: 40 fold | Stability after exposure to the three conditions ([5]; 25° C./92% RH open, 40° C./75% RH open, 60° C. tight container, one week): good physical stability | Bulk (HPLC) Purity ([5]; BS1: solid state, 25° C./92% RH, open container): 98.7% | Bulk (HPLC) Purity ([5]; BS2: solid state, 40° C./75% RH, open container): 97.2% | Bulk (HPLC) Purity ([5]; BS3: solid state, 60° C., tight container): 97.3% | HPLC purity, Initial ([5]; initial chemical purity before storage): 98.8%
